Measurements reported in US20260102407A1, “TREATMENT METHODS” (priority 2020, published 2026).
Values after ≈ are worked out from the molar mass of the structure shown. “Also recorded” adds a separate entry of the source.

What was measured:
ERK phosphorylation = assay: Western blot, IL-1β-inducible ERK phosphorylation in HMEC-1; assay type: cell-based, human; conditions: 20 ng/ml IL-1β 15 min
Procedure: Western blot analysis with extracts of cells treated with […]. HMEC-1 (80-90% confluency) were arrested in serum-free MCDB131 medium (Invitrogen, MD) without any growth factor for 48 h. Cells were treated with 30 μM compound in serum-free medium for 4 h, and incubated with 20 ng/ml IL-1β (Sigma, cat. SRE3083) in serum-free medium with the same concentration of compound for up to 4 h, unless otherwise indicated. Total protein was harvested as previously described using RIPA buffer with protease inhibitors. Proteins were resolved on 4-20% (w/v) SDS-polyacrylamide gradient gels and transferred to Immobilon-P PVDF membranes. Membranes were blocked with 5% skim milk and incubated with rabbit monoclonal FosB (cat. 2251S, 1:1000, Cell Signaling, USA), rabbit monoclonal VCAM-1 (cat. 13662S, 1:1000, Cell Signaling, USA), rabbit monoclonal p44/42 MAPK (cat. 4695S, 1:1000, Cell Signaling, USA), rabbit polyclonal p38 MAPK (cat. 9212S, 1:1000, Cell Signaling, USA), rabbit polyclonal SAPK/JNK (cat. 9252S, 1:1000, Cell Signaling, USA), rabbit monoclonal phospho-SAPK/JNK (cat. 4671S, 1:1000, Cell Signaling, USA), rabbit monoclonal phospho-p38 MAPK (cat. 4511S, 1:1000, Cell Signaling, USA), or, mouse monoclonal phospho-p44/42 MAPK antibodies (cat. 9106S, 1:2000, Cell Signaling, USA) at 4° C. overnight or mouse monoclonal β-actin antibodies (cat. A5316, 1:10000, Sigma-Aldrich) antibodies at 22° C. for 1 h. Membranes were then incubated with horseradish peroxidase conjugated secondary goat anti-rabbit (cat. P0448, 1:1000, DAKO Cytomation, Denmark) or goat anti-mouse (cat. P0447, 1:1000, DAKO Cytomation, Denmark) antibodies for 1 h. Chemiluminescence was detected using the Western Lightning Chemiluminescence system and ImageQuant™ LAS 4000 biomolecular imager. Band intensity in images generated with the LAS 4000 using the same settings were quantified by NIH ImageJ.

[1] = molecular target: T1, Recombinant human His-MEK1 (Homo sapiens, UniProt Q02750); assay: SPR (Biacore T200) on immobilised His-MEK1; assay type: binding; conditions: 15° C.; 20 mM HEPES, 150 mM NaCl, 5% DMSO pH 7.4
T1 construct: purchased ThermoFisher Scientific PV3303
Procedure: (§1) SPR. SPR was performed on a Biacore T200. The active and reference flow cells of a Xantec NIHMC Ni sensor chip were conditioned with 0.5M NaEDTA followed by 5 mM NiCl2 in immobilisation buffer (20 mM HEPES, 150 mM NaCl, pH 7.4). Recombinant human His-MEK1 and His-MEK2 (500 nM, ThermoFisher Scientific, cat. PV3303 and PV3615, respectively) were injected for 15 min at 10 μl min^−1 over separate active flow cells. All immobilisation was carried out at 25° C. Following immobilisation, the temperature was lowered to 15° C., and the buffer changed to 20 mM HEPES, 150 mM NaCl, 5% DMSO pH 7.4. Samples of PD98059 (2.5-30 μM in running buffer) and BT2 (1.25-15 μM) were injected at a flow rate of 30 μl min^−1 over immobilised MEK1 and MEK2. Solvent correction was applied to the data using a DMSO standard curve. Data were analysed using the Biacore T200 Evaluation software. Prior to SPR, limits of compound solubility were determined using ^1H 1D NMR.

HMEC-1 = assay: Endothelial network formation assay on Matrigel; assay type: cell-based, human
Procedure: Endothelial network formation assay. HMEC-1 (4×10^4 cells/well) in MCDB131 containing 1% FBS and compound (1 or 3 μM) or curcumin (1-40 μM) and 50 ng/ml FGF-2 were added to 96-well plates coated overnight at 4° C. with 100 μl of growth factor-reduced reconstituted basement membrane matrix (Matrigel, cat. 354230, Corning, NY). Network formation was observed over subsequent hours and photographed under 4× or 10× objective using an Olympus CKX41 microscope.

[2] = molecular target: T2, Recombinant human His-MEK2 (Homo sapiens, UniProt P36507); assay: SPR (Biacore T200) on immobilised His-MEK2; assay type: binding; conditions: 15° C.; 20 mM HEPES, 150 mM NaCl, 5% DMSO pH 7.4
T2 construct: purchased ThermoFisher Scientific PV3615
Procedure: as §1

[3] = Limit of compound solubility by 1H 1D NMR; assay type: physicochemical; conditions: 1H 1D NMR spectroscopy
Procedure: as §1

T2 sequence (P36507 whole entry): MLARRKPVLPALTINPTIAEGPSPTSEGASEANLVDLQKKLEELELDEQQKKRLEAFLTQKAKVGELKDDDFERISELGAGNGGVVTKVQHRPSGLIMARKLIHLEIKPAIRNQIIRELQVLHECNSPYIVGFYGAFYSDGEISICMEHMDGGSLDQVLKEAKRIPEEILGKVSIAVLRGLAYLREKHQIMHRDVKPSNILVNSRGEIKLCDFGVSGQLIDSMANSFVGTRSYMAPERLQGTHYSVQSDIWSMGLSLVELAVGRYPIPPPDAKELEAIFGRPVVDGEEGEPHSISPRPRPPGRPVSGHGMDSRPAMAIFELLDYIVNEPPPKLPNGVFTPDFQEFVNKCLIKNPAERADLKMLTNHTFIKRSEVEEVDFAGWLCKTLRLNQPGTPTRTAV
T1 sequence (Q02750 whole entry): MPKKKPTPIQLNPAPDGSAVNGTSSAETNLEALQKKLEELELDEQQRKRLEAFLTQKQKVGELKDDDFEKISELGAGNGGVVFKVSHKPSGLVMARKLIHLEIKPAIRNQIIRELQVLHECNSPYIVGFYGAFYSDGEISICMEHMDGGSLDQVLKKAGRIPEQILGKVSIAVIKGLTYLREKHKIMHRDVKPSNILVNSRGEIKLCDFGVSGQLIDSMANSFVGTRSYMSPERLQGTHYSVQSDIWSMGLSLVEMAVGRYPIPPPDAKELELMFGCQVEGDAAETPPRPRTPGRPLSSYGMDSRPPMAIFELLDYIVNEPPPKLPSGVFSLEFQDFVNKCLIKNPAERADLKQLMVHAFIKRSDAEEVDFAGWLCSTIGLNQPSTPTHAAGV

CCN1C(=O)c2cc(NC(=O)OCC(C)C)ccc2Oc2ccccc21 [BT2-IC, isobutyl (10-ethyl-11-oxo-10,11-dihydrodibenzo[b,f][1,4]oxazepin-2-yl)carbamate]
IL-1β-inducible ERK phosphorylation (FIG. 5D) (ERK phosphorylation; 1 μM): not at 1 μM
IL-1β-inducible ERK phosphorylation (FIG. 13A) (ERK phosphorylation; 3 μM): inhibited both ERK phosphorylation (FIG. 13A) and network formation (FIG. 13B) at 3 μM (albeit less potently than BT2)
binding to His-MEK1 (SPR) [1]: some interaction with MEK1
inhibition of network formation on Matrigel (FIG. 5B) (HMEC-1; 1 μM): not at 1 μM
inhibition of network formation on Matrigel (FIG. 13B) (HMEC-1; 3 μM): some inhibition of network formation at higher concentrations; also recorded: inhibited both ERK phosphorylation (FIG. 13A) and network formation (FIG. 13B) at 3 μM (albeit less potently than BT2)
binding to His-MEK2 (SPR) [2]: but not MEK2
solubility [3]: 8 ± 2 µM (≈ 2.84 µg/mL)
